Tests used:
[1] = system: NCI-H820; experiment: Cytotoxicity assay (CellTiter-Glo, 6 days); type: cell-based, human; conditions: NCI-H820, without MET amplification; FIG. 4C
Method: Tumor cells were plated at 2000-5000 cells/well in 180 μL growth medium containing 10% FBS in 96-well plates, and cultured at 37° C. in a humidified incubator with 5% C02. The following day, titrations of antibodies or ADCs in 20 μL were added and cells were incubated for 6 days. Cell viability was determined using a CellTiter-Glo Luminescent Cell Viability Assay (Promega) according to the manufacturer's instructions.
Tumor cells were plated at 2000-5000 cells/well in 180 μL growth medium containing 10% FBS in 96-well plates, and cultured at 37° C. in a humidified incubator with 5% C02. The following day, titrations of ADCs in 20 μL were added and cells were incubated for 6 days. Cell viability was determined using a CellTiter-Glo Luminescent Cell Viability Assay (Promega) according to the manufacturer's instructions.

[2] = system: Hs746T; experiment: Cytotoxicity assay (CellTiter-Glo, 6 days); type: cell-based, human; conditions: MET-amplified Hs746T gastric cancer cells; FIG. 4
Method: (§1) Tumor cells were plated at 2000-5000 cells/well in 180 μL growth medium containing 10% FBS in 96-well plates, and cultured at 37° C. in a humidified incubator with 5% C02. The following day, titrations of antibodies or ADCs in 20 μL were added and cells were incubated for 6 days. Cell viability was determined using a CellTiter-Glo Luminescent Cell Viability Assay (Promega) according to the manufacturer's instructions. A non-binding, irrelevant negative control ADC conjugated to MMAE was also included in all assays to confirm that cell killing was antigen dependent.
(§2) Tumor cells were plated at 2000-5000 cells/well in 180 μL growth medium containing 10% FBS in 96-well plates, and cultured at 37° C. in a humidified incubator with 5% C02. The following day, titrations of ADCs in 20 μL were added and cells were incubated for 6 days. Cell viability was determined using a CellTiter-Glo Luminescent Cell Viability Assay (Promega) according to the manufacturer's instructions. A non-binding, irrelevant negative control ADC conjugated to MMAE was also included in all assays to confirm that cell killing was antigen-dependent.

[3] = system: NCI-H441; experiment: Cytotoxicity assay (CellTiter-Glo, 6 days); type: cell-based, human; conditions: NCI-H441, without MET amplification; FIG. 4D
Method: as §1, §2

[4] = system: SNU-5; experiment: Cytotoxicity assay (CellTiter-Glo, 6 days); type: cell-based, human; conditions: MET-amplified SNU-5 gastric cancer cells; FIG. 4
Method: as §1

[5] = system: Hs746T ABT-700R xenografts; experiment: ABT-700-refractory xenograft efficacy; type: in vivo, mice; conditions: Hs746T ABT-700R xenografts; FIG. 12B
[6] = system: Hs746T gastric cancer xenografts; experiment: Hs746T xenograft efficacy; conditions: parental Hs746T xenografts, initial treatment; FIG. 12A
Method: Female SCID, SCID-Beige and nude mice were obtained from Charles River (Wilmington, Mass.) and housed at ten mice per cage. The body weight upon arrival was 20-22 g. Food and water were available ad libitum. Mice were acclimated to the animal facilities for a period of at least one week prior to commencement of experiments. Animals were tested in the light phase of a 12-hr light: 12-hr dark schedule (lights on at 06:00 hours).
Each experimental group included 8-10 animals.
Tumor volumes are depicted as mean±S.E.M.

[7] = patients; cited from earlier work

Substance | inhibition of proliferation [1] | inhibition of proliferation [2] | inhibition of proliferation [3] | inhibition of proliferation [4] | tumor response [5] | tumor response [6] | dose not tolerated [7] | dose tolerated [7]
ABT-700: humanized recombinant IgG1 kappa anti-cMet antibody, humanized version of mouse monoclonal antibody 224G11 | not cell lines without MET amplification | inhibited proliferation of cells with MET amplification | not cell lines without MET amplification | inhibited proliferation of cells with MET amplification | refractory to ABT-700 treatment with quick tumor outgrowth on therapy | tumor stasis followed by relapse |  | 
DCDT2980S: an MMAE ADC targeting CD22 |  |  |  |  |  |  | 3.2 mg/kg | 2.4 mg/kg
brentuximab vedotin: Seattle Genetics MMAE ADC with an approximate DAR of 4 |  |  |  |  |  |  | 2.7 mg/kg | 
